Measured values taken from PMC6944674, “Comparison of the Hepatotoxic Potential of Two Treatments for Autosomal-Dominant Polycystic Kidney DiseaseUsing Quantitative Systems Toxicology Modeling” (Pharmaceutical Research, 2020).

Key:
[1] = target: T1, MRP3 and MRP4 (basolateral transport) (Homo sapiens, UniProt O15439); assay: Basolateral inhibition constant: lowest IC50 of the MRP3 and MRP4 vesicular assays; type: biochemical; conditions: membrane vesicles (vesicular transport assay), lowest IC50 of the experimentally derived MRP3 and MRP4 IC50 values
T1 sequence (O15439 1-1325): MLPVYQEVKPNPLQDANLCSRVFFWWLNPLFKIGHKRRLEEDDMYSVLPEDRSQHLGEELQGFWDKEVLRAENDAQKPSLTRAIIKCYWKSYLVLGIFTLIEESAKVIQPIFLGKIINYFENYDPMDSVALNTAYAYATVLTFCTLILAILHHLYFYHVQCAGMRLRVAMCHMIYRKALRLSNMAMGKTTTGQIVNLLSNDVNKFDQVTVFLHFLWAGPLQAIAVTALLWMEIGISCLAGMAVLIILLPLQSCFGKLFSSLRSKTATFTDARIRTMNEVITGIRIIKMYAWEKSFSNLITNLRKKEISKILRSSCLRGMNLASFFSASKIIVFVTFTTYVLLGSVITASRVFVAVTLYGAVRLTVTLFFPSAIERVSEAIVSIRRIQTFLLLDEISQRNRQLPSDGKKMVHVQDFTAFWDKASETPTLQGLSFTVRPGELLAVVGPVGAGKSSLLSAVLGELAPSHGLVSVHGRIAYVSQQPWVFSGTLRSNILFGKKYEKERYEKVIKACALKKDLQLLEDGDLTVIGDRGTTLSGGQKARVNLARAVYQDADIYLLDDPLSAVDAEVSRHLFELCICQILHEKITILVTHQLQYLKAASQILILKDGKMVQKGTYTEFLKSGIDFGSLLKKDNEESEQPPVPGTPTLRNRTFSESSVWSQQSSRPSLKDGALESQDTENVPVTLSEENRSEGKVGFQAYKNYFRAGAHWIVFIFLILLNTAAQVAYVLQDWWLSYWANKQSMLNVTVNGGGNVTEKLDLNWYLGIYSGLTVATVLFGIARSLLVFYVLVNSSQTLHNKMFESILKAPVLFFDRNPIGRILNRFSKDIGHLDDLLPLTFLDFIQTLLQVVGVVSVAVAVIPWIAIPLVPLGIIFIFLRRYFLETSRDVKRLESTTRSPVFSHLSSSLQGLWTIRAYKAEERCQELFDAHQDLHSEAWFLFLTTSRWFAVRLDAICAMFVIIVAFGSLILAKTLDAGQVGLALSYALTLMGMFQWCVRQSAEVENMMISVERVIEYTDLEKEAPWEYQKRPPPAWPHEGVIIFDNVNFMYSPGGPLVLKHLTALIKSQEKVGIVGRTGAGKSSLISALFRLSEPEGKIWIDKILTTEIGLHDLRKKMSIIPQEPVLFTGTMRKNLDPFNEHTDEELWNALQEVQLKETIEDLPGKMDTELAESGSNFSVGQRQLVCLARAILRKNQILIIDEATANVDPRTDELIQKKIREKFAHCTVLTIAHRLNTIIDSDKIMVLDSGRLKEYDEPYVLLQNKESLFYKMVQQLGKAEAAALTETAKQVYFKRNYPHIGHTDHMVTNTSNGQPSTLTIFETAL
Protocol: The functional impact of lixivaptan, its three metabolites and tolvaptan on the human ABC (efflux) transporters BSEP and MRP3 and MRP4 was assessed for this project using in vitro vesicular transport inhibition assays. The inhibition of the human SLC (uptake) transporter NTCP was assessed using CHO cells stably expressing human NTCP. The concentration ranges used for the five test articles was determined based on the solubility of each compound in the assay solution. All transporter inhibition assays were conducted in triplicate by Solvo Biotechnology (Szeged, Hungary). For the simulation of bile acid transporter inhibition by lixivaptan in […], parameter values were selected for BSEP canalicular transport, basolateral transport (encompassing both MRP3 and MRP4), and NTCP transport. The parameter values for each include the inhibition constant, defined as the IC50 or Ki value, and the inhibition type, defined as competitive, non-competitive, or mixed inhibition.

human BSEP = target: T2, human BSEP (Homo sapiens, UniProt O95342); assay: BSEP vesicular transport inhibition assay (taurocholate, HEK-293 cell membrane vesicles); type: biochemical
T2 construct: host or cells: HEK-293 cell membrane vesicles
T2 sequence (O95342 whole entry): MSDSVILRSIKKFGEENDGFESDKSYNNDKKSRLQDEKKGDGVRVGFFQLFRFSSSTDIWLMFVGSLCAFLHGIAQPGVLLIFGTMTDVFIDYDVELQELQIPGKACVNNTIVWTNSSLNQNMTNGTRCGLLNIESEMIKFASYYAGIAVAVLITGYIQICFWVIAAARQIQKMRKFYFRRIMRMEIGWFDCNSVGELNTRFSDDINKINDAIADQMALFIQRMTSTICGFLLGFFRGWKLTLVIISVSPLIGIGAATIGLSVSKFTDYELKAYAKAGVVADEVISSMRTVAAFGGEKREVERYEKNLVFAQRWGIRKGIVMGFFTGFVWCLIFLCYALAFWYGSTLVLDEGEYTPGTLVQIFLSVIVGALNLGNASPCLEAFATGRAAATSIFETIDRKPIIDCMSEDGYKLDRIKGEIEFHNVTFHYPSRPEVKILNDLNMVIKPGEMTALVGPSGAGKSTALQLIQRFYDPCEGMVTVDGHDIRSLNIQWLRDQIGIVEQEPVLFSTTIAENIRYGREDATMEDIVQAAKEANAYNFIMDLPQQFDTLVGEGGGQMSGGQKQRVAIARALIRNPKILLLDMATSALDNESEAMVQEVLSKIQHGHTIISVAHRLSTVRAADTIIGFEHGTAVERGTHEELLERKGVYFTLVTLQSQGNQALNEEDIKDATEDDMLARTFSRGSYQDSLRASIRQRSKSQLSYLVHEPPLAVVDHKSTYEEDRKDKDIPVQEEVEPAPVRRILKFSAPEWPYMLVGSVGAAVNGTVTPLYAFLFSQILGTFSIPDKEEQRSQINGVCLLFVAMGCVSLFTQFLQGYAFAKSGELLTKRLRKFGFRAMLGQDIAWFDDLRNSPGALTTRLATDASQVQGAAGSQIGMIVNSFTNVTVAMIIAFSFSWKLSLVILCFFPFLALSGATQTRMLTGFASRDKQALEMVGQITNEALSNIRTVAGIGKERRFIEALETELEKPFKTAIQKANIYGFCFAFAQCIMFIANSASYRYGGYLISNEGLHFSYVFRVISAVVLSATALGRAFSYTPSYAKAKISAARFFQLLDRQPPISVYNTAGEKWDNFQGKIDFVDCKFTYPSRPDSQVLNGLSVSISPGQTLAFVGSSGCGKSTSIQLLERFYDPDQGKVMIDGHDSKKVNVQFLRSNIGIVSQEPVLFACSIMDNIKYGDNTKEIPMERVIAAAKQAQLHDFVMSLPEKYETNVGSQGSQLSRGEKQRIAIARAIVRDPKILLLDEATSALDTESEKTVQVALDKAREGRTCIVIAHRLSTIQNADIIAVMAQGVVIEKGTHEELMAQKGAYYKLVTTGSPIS
Protocol: (§1) The functional impact of lixivaptan, its three metabolites and tolvaptan on the human ABC (efflux) transporters BSEP and MRP3 and MRP4 was assessed for this project using in vitro vesicular transport inhibition assays. The inhibition of the human SLC (uptake) transporter NTCP was assessed using CHO cells stably expressing human NTCP. The concentration ranges used for the five test articles was determined based on the solubility of each compound in the assay solution. All transporter inhibition assays were conducted in triplicate by Solvo Biotechnology (Szeged, Hungary).
For the simulation of bile acid transporter inhibition by lixivaptan in DILIsym, parameter values were selected for BSEP canalicular transport, basolateral transport (encompassing both MRP3 and MRP4), and NTCP transport. The parameter values for each include the inhibition constant, defined as the IC50 or Ki value, and the inhibition type, defined as competitive, non-competitive, or mixed inhibition.
In vesicular transport inhibition assays, lixivaptan and its metabolites each inhibited BSEP-mediated probe substrate accumulation (Figure B1) and MRP4-mediated probe substrate accumulation (Figure B2) dose-dependently.
Figure B1. […] See Appendix A for more details.

HepG2 cells = assay: Seahorse XFe96 cellular respiration assay (oxygen consumption rate); type: cell-based; conditions: 24 hour incubation
Protocol: To assess the potential effect of the five test articles on mitochondrial function, cellular respiration assays using a Seahorse XFe96 Flux Analyzer were conducted by Cyprotex (Macclesfield, UK) and overseen by the authors. HepG2 cells were incubated with each test article for 1 or 24 hours and tested for an effect on cellular respiration by measuring the oxygen consumption rate (OCR). Each study was conducted in triplicate. Importantly, the 1 hour culture was conducted in the absence of serum (i.e. no serum protein binding) as is standard for the Seahorse Analyzer assay conditions.

human NTCP = target: T3, human NTCP (Homo sapiens, UniProt Q14973); assay: NTCP inhibition in CHO cells stably expressing human NTCP (taurocholate); type: cell-based
T3 sequence (Q14973 1-349): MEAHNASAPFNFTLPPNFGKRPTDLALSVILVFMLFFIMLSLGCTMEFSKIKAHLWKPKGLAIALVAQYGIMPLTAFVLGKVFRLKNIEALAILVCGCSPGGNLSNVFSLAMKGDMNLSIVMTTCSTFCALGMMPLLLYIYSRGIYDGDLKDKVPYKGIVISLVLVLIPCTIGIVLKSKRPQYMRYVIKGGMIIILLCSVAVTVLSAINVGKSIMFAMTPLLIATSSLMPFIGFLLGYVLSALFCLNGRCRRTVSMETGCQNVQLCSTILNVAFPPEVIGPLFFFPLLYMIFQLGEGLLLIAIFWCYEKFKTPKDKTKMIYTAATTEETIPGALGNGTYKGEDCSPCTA
Protocol: as §1
Figure B4. […] See Appendix A for more details.

IC50 [1]: 70 µM | inhibition of NTCP-mediated probe substrate accumulation (human NTCP; CHO cells): observed | IC50 (human NTCP; read-out: NTCP inhibition constant (IC50)): 19 µM
Structure (SMILES): Cc1ccc(F)cc1C(=O)Nc1ccc(C(=O)N2Cc3cccn3Cc3ccccc32)c(Cl)c1 [Lixivaptan, lixivaptan]
IC50 (human BSEP; read-out: BSEP inhibition constant (IC50)): 15 µM | inhibition of BSEP-mediated probe substrate accumulation (human BSEP; vesicular transport inhibition assay): inhibited | effect on HepG2 oxygen consumption rate (mitochondrial respiration) (HepG2 cells): reduce the HepG2 oxygen consumption rate (OCR) in a dose-dependent manner
